Results reported in patent US20250120967A1, “TYROSINE KINASES INHIBITORS AND USES THEREOF” (GREAT NOVEL THERAPEUTICS BIOTECH & MEDICALS CORPORATION, priority 2023, published 2025).

Experiments:
Assay in all cases: Tyrosine kinase inhibition assay
Format in all cases: biochemical
Conditions in all cases: single concentration 1.0 μM, read-out: percent inhibition
[1] = target: T1, EPHA8 (Homo sapiens, UniProt P29322)
T1 sequence (P29322 28-1005): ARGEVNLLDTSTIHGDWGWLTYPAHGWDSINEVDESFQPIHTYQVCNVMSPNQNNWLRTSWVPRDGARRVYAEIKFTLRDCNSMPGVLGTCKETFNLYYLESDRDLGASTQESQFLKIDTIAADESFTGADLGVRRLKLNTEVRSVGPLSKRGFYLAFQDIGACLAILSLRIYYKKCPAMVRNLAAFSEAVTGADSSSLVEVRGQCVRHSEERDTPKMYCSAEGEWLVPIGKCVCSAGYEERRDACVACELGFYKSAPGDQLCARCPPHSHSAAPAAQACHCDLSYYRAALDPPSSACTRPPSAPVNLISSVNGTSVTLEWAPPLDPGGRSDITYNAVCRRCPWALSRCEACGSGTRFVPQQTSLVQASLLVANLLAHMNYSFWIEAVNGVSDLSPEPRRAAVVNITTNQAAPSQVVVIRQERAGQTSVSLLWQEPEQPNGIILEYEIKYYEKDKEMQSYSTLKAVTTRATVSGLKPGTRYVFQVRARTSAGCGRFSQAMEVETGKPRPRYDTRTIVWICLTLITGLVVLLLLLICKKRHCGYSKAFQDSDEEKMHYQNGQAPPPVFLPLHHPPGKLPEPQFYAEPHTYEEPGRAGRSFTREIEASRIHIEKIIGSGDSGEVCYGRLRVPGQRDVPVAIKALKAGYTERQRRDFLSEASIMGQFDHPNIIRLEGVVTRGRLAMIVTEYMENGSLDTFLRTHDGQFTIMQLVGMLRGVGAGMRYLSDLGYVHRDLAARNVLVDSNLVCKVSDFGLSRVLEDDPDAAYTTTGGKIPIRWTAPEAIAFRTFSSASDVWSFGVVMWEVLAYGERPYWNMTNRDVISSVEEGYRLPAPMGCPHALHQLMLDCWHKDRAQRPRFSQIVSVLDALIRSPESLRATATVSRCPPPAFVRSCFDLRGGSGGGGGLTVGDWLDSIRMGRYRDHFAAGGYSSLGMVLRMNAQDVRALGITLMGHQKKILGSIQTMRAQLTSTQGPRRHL
Description: (§1) Tyrosine kinase inhibition assays were performed at ThermoFisher Life Technologies (Madison, WI, USA) using standard protocols (SelectScreen Biochemical Profiling Service, Thermo Fisher Scientific). ATP concentrations used were at the apparent Km. Test compounds were screened in 1% dimethylsulffoxide (DMSO) (final concentration) in the well. For 10-point titrations, 3-fold serial dilutions were conducted from the starting concentration of […]. All Peptide/Kinase Mixtures were diluted to a 2× working concentration in the appropriate Kinase Buffer. All ATP Solutions were diluted to a 4× working concentration in Kinase Buffer (50 mM HEPES pH 7.5, 0.01% BRIJ-35, 10 mM MgCl2, 1 mM EGTA). The apparent ATP Km was previously determined using a Z′-LYTE assay. The Development Reagent was diluted in Development Buffer.
(§2) The inhibition activities of compounds were determined in biochemical assays using single concentration (1.0 μM) measurements. The results were provided as percent inhibition values. A compound displaying a percent inhibition value of greater 80% was defined as a hit. 99 different tyrosine kinases were used.

[2] = target: T2, MAP4K3 (GLK) (Homo sapiens, UniProt Q8IVH8)
T2 sequence (Q8IVH8 1-894): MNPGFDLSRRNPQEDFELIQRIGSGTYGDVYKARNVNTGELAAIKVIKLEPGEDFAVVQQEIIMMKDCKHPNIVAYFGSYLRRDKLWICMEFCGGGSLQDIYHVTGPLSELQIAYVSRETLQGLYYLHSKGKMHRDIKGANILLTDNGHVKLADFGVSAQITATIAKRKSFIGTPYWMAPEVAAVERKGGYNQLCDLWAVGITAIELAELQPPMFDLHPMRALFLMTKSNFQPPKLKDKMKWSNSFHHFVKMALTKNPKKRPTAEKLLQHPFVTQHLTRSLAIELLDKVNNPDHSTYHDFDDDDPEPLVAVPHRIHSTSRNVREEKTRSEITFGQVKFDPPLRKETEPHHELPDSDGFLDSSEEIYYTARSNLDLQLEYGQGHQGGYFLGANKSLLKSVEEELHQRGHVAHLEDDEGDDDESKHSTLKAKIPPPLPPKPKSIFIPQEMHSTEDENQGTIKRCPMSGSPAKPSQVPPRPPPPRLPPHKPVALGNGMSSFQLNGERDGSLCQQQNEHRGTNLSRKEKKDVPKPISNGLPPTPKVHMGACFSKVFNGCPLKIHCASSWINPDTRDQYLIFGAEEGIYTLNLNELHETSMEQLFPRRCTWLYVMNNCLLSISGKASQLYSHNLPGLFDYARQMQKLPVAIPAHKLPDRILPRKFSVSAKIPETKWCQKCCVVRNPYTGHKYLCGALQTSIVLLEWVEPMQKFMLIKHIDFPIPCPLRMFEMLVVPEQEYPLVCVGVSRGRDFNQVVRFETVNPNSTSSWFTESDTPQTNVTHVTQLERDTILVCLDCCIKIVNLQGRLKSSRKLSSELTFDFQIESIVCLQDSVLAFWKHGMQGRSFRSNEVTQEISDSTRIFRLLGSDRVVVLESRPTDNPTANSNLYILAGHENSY
Description: as §1, §2

[3] = target: AURKB (Aurora B) (Homo sapiens, UniProt Q96GD4)
Chain of AURKB (Aurora B) (Q96GD4 whole entry): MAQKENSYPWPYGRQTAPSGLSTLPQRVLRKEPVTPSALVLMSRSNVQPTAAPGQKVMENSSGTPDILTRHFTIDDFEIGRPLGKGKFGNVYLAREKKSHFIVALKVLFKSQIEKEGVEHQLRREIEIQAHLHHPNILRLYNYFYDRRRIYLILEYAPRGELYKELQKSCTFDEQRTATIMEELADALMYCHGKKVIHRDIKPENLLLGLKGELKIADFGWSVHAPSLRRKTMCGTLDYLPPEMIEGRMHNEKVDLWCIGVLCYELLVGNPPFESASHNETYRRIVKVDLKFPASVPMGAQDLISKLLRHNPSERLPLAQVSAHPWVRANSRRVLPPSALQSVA
Description: as §1, §2

[4] = target: RAF1 (cRAF) Y340D Y341D (Homo sapiens, UniProt P04049, Y340D/Y341D)
Chain of RAF1 (cRAF) Y340D Y341D (P04049 whole entry Y340D/Y341D): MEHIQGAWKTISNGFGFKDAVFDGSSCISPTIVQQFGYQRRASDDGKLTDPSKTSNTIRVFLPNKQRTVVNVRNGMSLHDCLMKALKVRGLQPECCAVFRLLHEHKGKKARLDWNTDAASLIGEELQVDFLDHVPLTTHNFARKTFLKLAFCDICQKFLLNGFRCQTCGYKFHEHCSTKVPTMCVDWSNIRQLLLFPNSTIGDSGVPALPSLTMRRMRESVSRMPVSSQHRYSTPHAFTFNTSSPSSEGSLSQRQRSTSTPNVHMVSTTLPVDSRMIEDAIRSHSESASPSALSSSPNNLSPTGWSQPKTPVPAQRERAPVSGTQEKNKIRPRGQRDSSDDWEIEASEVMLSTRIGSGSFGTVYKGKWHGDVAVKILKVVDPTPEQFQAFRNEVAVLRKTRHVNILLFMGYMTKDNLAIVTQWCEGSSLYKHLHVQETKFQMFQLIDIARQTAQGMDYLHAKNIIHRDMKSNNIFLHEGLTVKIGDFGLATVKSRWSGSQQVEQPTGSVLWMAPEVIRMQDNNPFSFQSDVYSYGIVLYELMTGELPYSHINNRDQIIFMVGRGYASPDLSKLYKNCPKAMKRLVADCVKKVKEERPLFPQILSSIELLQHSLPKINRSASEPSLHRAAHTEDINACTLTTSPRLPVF
Description: as §1, §2

[5] = target: SRMS (Srm) (Homo sapiens, UniProt Q9H3Y6)
Chain of SRMS (Srm) (Q9H3Y6 whole entry): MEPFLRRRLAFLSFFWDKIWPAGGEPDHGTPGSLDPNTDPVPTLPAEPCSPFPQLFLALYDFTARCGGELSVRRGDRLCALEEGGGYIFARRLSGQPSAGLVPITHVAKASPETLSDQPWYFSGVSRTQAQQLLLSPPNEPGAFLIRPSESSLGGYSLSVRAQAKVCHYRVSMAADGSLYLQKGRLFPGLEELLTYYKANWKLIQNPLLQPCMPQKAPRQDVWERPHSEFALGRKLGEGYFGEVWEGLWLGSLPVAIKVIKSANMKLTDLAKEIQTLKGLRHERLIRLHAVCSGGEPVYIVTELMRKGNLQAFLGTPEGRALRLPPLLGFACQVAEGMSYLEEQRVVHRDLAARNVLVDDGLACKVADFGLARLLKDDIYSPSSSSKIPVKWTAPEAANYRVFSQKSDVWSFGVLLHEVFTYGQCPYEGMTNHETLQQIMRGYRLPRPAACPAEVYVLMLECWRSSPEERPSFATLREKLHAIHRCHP
Description: as §1, §2

[6] = target: PEAK1 (Homo sapiens, UniProt Q9H792)
Chain of PEAK1 (Q9H792 whole entry): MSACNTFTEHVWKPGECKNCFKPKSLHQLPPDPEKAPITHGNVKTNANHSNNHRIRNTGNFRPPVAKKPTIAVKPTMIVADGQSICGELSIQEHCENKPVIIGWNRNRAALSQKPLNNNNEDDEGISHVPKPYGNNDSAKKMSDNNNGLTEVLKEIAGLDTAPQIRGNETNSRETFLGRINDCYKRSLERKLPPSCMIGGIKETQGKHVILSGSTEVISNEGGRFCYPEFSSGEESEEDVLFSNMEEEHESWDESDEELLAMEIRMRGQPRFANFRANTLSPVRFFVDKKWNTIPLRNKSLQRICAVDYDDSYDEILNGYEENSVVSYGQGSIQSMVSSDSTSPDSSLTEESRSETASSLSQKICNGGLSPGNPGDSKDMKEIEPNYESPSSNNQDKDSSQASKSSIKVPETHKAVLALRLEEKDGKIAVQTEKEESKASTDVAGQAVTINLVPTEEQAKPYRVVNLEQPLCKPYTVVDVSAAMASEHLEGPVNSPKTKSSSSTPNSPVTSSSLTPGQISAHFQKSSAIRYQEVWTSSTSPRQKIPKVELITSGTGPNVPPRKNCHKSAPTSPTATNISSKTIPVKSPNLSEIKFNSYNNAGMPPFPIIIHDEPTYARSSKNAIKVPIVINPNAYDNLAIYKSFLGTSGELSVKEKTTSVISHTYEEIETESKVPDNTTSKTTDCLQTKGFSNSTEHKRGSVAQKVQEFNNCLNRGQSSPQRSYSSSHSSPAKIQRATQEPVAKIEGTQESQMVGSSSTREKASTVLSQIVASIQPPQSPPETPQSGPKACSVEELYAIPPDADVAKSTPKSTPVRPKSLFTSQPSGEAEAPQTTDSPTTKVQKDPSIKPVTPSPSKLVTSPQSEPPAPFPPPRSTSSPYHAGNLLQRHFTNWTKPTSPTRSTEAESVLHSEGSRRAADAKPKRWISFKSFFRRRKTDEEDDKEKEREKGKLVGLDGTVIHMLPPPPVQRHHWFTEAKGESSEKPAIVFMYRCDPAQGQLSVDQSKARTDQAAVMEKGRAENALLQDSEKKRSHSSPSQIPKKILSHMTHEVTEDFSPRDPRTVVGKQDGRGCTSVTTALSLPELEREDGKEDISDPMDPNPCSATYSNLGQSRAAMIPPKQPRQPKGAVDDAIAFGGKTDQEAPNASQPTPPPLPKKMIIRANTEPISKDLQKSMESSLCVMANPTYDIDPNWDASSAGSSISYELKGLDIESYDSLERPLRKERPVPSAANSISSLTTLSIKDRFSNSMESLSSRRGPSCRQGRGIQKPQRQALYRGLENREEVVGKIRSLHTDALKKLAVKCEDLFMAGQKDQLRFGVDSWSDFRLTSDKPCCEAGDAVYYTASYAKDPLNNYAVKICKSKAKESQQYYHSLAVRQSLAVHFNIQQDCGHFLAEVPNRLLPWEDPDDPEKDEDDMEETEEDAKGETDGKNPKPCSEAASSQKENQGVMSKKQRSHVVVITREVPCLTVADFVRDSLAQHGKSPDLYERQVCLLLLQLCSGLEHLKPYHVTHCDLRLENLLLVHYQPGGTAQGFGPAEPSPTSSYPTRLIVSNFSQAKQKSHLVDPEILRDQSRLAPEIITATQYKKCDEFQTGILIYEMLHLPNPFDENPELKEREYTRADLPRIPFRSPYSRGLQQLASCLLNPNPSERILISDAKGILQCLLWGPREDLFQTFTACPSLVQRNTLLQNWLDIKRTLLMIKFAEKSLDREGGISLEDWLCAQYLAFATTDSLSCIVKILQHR
Description: as §1, §2

## COc1cc2nccc(Oc3ccc(NC(=O)C4(C(=O)Nc5ccc(F)cc5)CC4)cc3F)c2cc1Oc1ccc(N)cc1F [Cbo-23]
[1]
  inhibition at 1 µM: 100%
[2]
  inhibition at 1 µM: 41%
[3]
  inhibition at 1 µM: 67%
[4]
  inhibition at 1 µM: 40%
[5]
  inhibition at 1 µM: 99%

## COc1cc2nccc(Oc3ccc(NC(=O)C4(NC(=O)c5ccc(F)cc5)CC4)cc3F)c2cc1Oc1ccc(N)cc1F [Cbo-10]
[1]
  inhibition at 1 µM: 76%
[2]
  inhibition at 1 µM: 59%
[3]
  inhibition at 1 µM: 83%
[4]
  inhibition at 1 µM: 3%
[6]
  inhibition at 1 µM: 55%
[5]
  inhibition at 1 µM: 74%

## COc1cc2nccc(Oc3ccc(NC(=O)C4(NC(=O)c5ccc(F)cc5)CC4)cc3F)c2cc1OC [Cbo-02, N-(1-((4-((6,7-diMethoxyquinolin-4-yl)oxy)-3-fluorophenyl)carbamoyl)cyclopropyl)-4-fluorobenzamide]
[1]
  inhibition at 1 µM: 42%
[2]
  inhibition at 1 µM: 43%
[3]
  inhibition at 1 µM: 99%
[4]
  inhibition at 1 µM: -8%
[6]
  inhibition at 1 µM: 38%
[5]
  inhibition at 1 µM: 12%

## COc1cc2nccc(Oc3ccc(NC(=O)C4(NC(=O)c5ccc(F)cc5)CC4)cc3F)c2cc1Oc1c(F)cc(N)cc1F [Cbo-14]
[1]
  inhibition at 1 µM: 82%
[2]
  inhibition at 1 µM: 58%
[3]
  inhibition at 1 µM: 84%
[4]
  inhibition at 1 µM: 3%
[6]
  inhibition at 1 µM: 64%
[5]
  inhibition at 1 µM: 84%

## COc1cc2nccc(Oc3ccc(NC(=O)C4(C(=O)Nc5ccc(F)cc5)CC4)cc3)c2cc1OC [Cabozantinib, reference compound]
[1]
  inhibition at 1 µM: 104%
[2]
  inhibition at 1 µM: 48%
[3]
  inhibition at 1 µM: 84%
[4]
  inhibition at 1 µM: 66%
[6]
  inhibition at 1 µM: 85%
[5]
  inhibition at 1 µM: 96%
